Experimental data taken from patent US20190365675A1, “COMPOSITIONS FOR THE PREVENTION AND/OR TREATMENT OF ALCOHOL USE DISORDERS” (SERVICIO ANDALUZ DE SALUD, priority 2016, published 2019).

How the values were obtained:
Assay type in all cases: in vivo, Wistar rats
iNOS = iNOS mRNA in frontal cortex after ethanol intoxication; conditions: OEA pre-treatment
Protocol: (§1) The animals were treated with intragastric (i.g.) ethanol 3 times a day using an i.g. cannula (16G needle, Fisher Scientific, Waltham, Mass., USA), following a protocol based on a slightly modified standard 4-day alcohol intoxication pattern (Bernier et al., 2002a, b) (FIG. 1A). The ethanol doses were administered every 8 h for a total time of 4 days. The rats treated with ethanol received an initial loading dose of 5 g/kg of ethanol in a 30% solution (w/v) and then a maximum maintenance dose of 3 g/kg, which were determined based on blood ethanol levels (BEL). This repeated standard alcohol intoxication paradigm kept BEL intoxication relatively constant in a range of sedation/ataxia (190 to 430 mg/dl, Table 3), according to the 6-point alcohol intoxication behavior scale (Majchrowicz, 1975). The mean dose of ethanol/rat/day (days 1-4) was 7.06 g/kg, similar to other studies (Obernier et al., 2002a, b). OEA (5 mg/kg, i.p., except initial dose of 10 mg/kg i.p.; synthesized as described in Giuffrida et al., 2000) was dissolved in the vehicle (5% Tween-80 in saline solution) and injected 10 minutes before each of the administrations of ethanol by an intragastric gavage. […] The quantitative changes in mRNA levels were estimated by means of RT-PCR, carried out in the presence of the SYBR green primer using a 20-L reaction in a Rotor-Gene (Corbett Research®, Mortlake, NSW, Australia). […]

MCP-1 = MCP-1 levels (ELISA) in frontal cortex after ethanol intoxication; conditions: OEA pre-treatment
Protocol: The animals were treated with intragastric (i.g.) ethanol 3 times a day using an i.g. cannula (16G needle, Fisher Scientific, Waltham, Mass., USA), following a protocol based on a slightly modified standard 4-day alcohol intoxication pattern (Bernier et al., 2002a, b) (FIG. 1A). The ethanol doses were administered every 8 h for a total time of 4 days. The rats treated with ethanol received an initial loading dose of 5 g/kg of ethanol in a 30% solution (w/v) and then a maximum maintenance dose of 3 g/kg, which were determined based on blood ethanol levels (BEL). This repeated standard alcohol intoxication paradigm kept BEL intoxication relatively constant in a range of sedation/ataxia (190 to 430 mg/dl, Table 3), according to the 6-point alcohol intoxication behavior scale (Majchrowicz, 1975). The mean dose of ethanol/rat/day (days 1-4) was 7.06 g/kg, similar to other studies (Obernier et al., 2002a, b). […] The levels of soluble HMGB1, TNF-α, IL-1β and MCP-1 were determined by means of a commercially available enzyme-linked immunosorbent assay kit (ELISA) (Elabscience Biotechnology Co., Ltd., China, for HMGB-1; RayBiotech®, GA, USA, for TNF-α, IL-1β, and MCP-1). The nuclear/cytosol HMGB1 fraction was determined by means of Western blot analysis.

COX-2 = COX-2 mRNA in frontal cortex after ethanol intoxication; conditions: ethanol-treated animals (not in vehicle-treated animals), OEA pre-treatment
Protocol: as §1

[1] = Blood ethanol levels (BEL) during 4-day alcohol intoxication protocol; conditions: before and after force-feeding; two-way repeated measure ANOVA n.s.
Protocol: The animals were treated with intragastric (i.g.) ethanol 3 times a day using an i.g. cannula (16G needle, Fisher Scientific, Waltham, Mass., USA), following a protocol based on a slightly modified standard 4-day alcohol intoxication pattern (Bernier et al., 2002a, b) (FIG. 1A). The ethanol doses were administered every 8 h for a total time of 4 days. The rats treated with ethanol received an initial loading dose of 5 g/kg of ethanol in a 30% solution (w/v) and then a maximum maintenance dose of 3 g/kg, which were determined based on blood ethanol levels (BEL). This repeated standard alcohol intoxication paradigm kept BEL intoxication relatively constant in a range of sedation/ataxia (190 to 430 mg/dl, Table 3), according to the 6-point alcohol intoxication behavior scale (Majchrowicz, 1975). The mean dose of ethanol/rat/day (days 1-4) was 7.06 g/kg, similar to other studies (Obernier et al., 2002a, b). To confirm intoxication, BEL was determined in blood samples taken from the tail 120 minutes before and after the second i.g. administration of ethanol of the day, which was done at 3 pm by means of the use of electrochemical detection of an enzymatic reaction with an AM1 alcohol analyzer (Analox Instruments, London, United Kingdom). […]

With `CCCCCCCC/C=C\CCCCCCCC(=O)NCCO` [OEA, oleoylethanolamide] the “Ethanol-induced increase in expression of iNOS mRNA” value (iNOS) was “entirely prevented”, the “Ethanol-induced increase in MCP-1 levels” value (MCP-1) was “prevented” and the “Levels of COX-2 mRNA with ethanol” value (COX-2) was “reduced”. The “Effect of OEA pre-treatment on BEL reached during days 2-4” value [1] was “did not change”.
